Measurements taken from PMC9134315, “Systemic Administration of a Brain Permeable Cdk5 Inhibitor Alters Neurobehavior” (Frontiers in Pharmacology, 2022).

Assays:
CDK5/p25 = CDK5/p25 (Homo sapiens, UniProt Q00535); assay: In vitro dose-response kinase inhibition assay; format: biochemical
Method: (§1) In vitro phosphorylation reactions were conducted as dose-response kinase inhibition assays with three highly homologous CDKs, namely, Cdk2/CyclinE (1.5 nM), CDK5/p25 (0.35 nM), and Cdk9/CyclinT1 (9 nM). Briefly, the abovementioned kinases were incubated with ATP (30 μM), the corresponding substrate (20 μM), and an increasing concentration of 25–106 (0–5 μM) for 30 min.

Cdk9/CyclinT1 = Cdk9/CyclinT1 (Homo sapiens, UniProt P50750); assay: In vitro dose-response kinase inhibition assay; format: biochemical; conditions: 30 min, ATP 30 μM
Cdk9/CyclinT1, sequence (P50750 whole entry, species assumed): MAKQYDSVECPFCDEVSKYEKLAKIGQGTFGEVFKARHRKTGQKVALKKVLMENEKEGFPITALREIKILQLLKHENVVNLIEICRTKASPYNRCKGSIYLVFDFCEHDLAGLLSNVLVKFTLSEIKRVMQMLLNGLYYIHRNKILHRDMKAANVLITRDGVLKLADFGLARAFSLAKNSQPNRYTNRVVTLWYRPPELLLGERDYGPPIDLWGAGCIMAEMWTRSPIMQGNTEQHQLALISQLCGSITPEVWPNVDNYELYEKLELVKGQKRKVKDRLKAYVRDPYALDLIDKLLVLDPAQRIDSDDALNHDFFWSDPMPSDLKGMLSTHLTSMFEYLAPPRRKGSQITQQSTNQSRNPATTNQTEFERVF
Cdk9/CyclinT1, sequence (O60563 whole entry partner, species assumed): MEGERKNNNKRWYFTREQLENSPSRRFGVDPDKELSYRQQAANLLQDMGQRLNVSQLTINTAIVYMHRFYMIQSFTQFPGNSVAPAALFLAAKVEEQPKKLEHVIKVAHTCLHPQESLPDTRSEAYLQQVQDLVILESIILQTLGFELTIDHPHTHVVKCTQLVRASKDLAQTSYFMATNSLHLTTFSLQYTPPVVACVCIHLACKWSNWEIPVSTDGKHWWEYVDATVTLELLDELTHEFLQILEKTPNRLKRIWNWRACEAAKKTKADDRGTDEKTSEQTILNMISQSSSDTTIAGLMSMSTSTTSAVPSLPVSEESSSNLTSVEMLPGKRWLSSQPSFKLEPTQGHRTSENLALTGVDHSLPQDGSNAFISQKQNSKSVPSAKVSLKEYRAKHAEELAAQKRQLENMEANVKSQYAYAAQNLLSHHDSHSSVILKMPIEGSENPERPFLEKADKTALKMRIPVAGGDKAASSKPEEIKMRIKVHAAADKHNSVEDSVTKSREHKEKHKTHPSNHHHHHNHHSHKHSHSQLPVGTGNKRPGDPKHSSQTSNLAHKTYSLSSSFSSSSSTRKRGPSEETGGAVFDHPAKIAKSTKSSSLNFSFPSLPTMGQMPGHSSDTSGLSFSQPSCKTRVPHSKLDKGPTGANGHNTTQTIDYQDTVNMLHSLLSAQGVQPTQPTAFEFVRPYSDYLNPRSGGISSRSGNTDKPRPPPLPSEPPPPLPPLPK
Method: as §1

Cdk2/CyclinE = Cdk2/CyclinE (Homo sapiens, UniProt P24941); assay: In vitro dose-response kinase inhibition assay; format: biochemical
Method: as §1

C57BL/6 mice [1] = assay: Tail suspension test; format: in vivo, mouse; conditions: 50 mg/kg, 6 h after injection
Method: The tail suspension test was conducted as previously described ([Plattner et al., 2015]). The mice were suspended by their tails for a total duration of 6 min and video-recorded. Post-hoc blind experimentalists quantified the duration and latency of immobility for each randomized video. The average quantitative determents of each observer were averaged to generate the final analytic values of motion.
Next, we tested the effects of 25–106 on mouse performance in the tail-suspension test to measure depressive-like phenotypes in mice ([Cryan et al., 2005]; [Can et al., 2012]). […] Thus, 25–106 modulated several neurobehavioral behaviors that have previously been linked to Cdk5.

Cdk5 = target: T1, Cdk5 (Mus musculus, UniProt P49615); assay: Ex vivo acute striatal brain slice pharmacology, immunoblot of phospho-Thr75 DARPP-32 and phospho-Ser1116 NR2B; format: cell-based; conditions: acute striatal slices, 1 h treatment, 0-10 µM; read-out: IC50, Cdk5-dependent phosphorylation of DARPP-32 and NR2B
T1 construct: from tissue; host or cells: striatum of wild-type C57BL/6 mice (acute slices, or lysates after I.V. dosing)
T1 sequence (P49615 whole entry): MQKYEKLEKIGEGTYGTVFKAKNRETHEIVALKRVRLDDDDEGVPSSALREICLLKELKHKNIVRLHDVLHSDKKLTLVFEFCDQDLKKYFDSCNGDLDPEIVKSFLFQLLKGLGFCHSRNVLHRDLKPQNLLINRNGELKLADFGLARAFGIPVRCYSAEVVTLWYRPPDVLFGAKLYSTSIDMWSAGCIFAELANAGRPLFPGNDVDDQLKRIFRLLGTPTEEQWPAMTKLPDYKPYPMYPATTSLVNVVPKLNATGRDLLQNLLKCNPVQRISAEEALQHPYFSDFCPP
T1 sequence (P61809 2-307 partner limits assumed): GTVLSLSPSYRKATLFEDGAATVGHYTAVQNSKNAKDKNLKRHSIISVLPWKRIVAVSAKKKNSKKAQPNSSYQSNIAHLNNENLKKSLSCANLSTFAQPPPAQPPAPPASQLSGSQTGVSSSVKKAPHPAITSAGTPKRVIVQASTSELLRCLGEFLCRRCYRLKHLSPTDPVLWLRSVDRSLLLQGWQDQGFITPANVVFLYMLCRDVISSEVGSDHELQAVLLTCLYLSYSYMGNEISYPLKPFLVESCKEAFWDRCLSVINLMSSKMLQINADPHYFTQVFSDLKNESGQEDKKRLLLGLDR
Method: Brain slice pharmacology was performed as described ([Nishi et al., 2000]). Briefly, the mice were decapitated, and the brains were rapidly dissected and submerged in ice-cold normal Kreb’s solution (124 mM NaCl, 4 mM KCl, 26 mM NaHCO3, 1.25 mM KH2PO4, 1.5 mM MgSO4, 10 mM D-glucose, and 1.5 mM CaCl2). The brains were subsequently sectioned into normal Kreb’s solution at 350 µ thickness. The brain slices were transferred to a 30°C solution of normal Kreb’s containing 10 µM deaminase for a 1-h recovery period. The sections were then incubated in normal Kreb’s solution with and without the indicated compounds across the dose and time ranges indicated. The sections were rapidly snap-frozen in dry ice to terminate treatment regimes.
Immunoblotting was performed as previously described ([Umfress et al., 2021]). Mouse brains were rapidly dissected in an ice-cold solution of 50 mM NaF/PBS. The regions of interest were further dissected out and rapidly snap-frozen in dry ice. The frozen tissue was homogenized in boiling lysis buffer (1% SDS, 50 mM NaF) and sonicated with several three to four pulses at 40 dB. The samples were subsequently denatured at 90°C for 5 min. Protein concentration was determined by the BCA assay, and homogenates were diluted in 4x sample buffer, separated by SDS-PAGE, and transferred to 0.45-µm nitrocellulose membranes, blocked with 5% milk solution (1 h), and probed with primary antibodies (overnight). The following antibodies were used in the study: phospho-Ser549 synapsin I (Phosphosolutions), total synapsin I (Phosphosolutions), actin (Invitrogen), phospho-Ser1116 (in-house) ([Plattner et al., 2014]), and total NR2B (Phosphosolutions), phospho-Thr75, and total DARPP-32 (Cell Signaling Technology). Visualization was performed using the Licor CLX membrane scanner and Licor secondary antibodies.
In order to assess the functional inhibition of Cdk5 in intact brain tissue by the four compounds summarized in Figure 1, acutely prepared striatal slices were treated in a dose-dependent manner (0, 0.25, 0.5, 1, 5, and 10 µM) with each inhibitor for 1 h, and Cdk5 activity was assessed via immunoblotting the phosphorylation of established Cdk5 sites, phospho-Thr75 DARPP-32 and phospho-Ser1116 NR2B ([Bibb et al., 1999]; [Plattner et al., 2014]).

C57BL/6 mice [2] = assay: Open-field test; format: in vivo, mouse; conditions: 50 mg/kg
Method: The OFT was performed as described ([Chakraborti et al., 2021]). With the adaptation duration of the test being 1 h for each mouse, briefly, the mice were placed in a square box (40 cm × 40 cm) and allowed to freely explore. The center square portion of the maze was defined as the “open area.” Video tracking using EthoVision 16 software was used to track animal movement throughout the box and stereotypic and locomotive behaviors such as hopping, sniffing, and rearing. Total distance traveled, entries into the center of the maze, and duration in the center were tracked and analyzed in EthoVision.
To establish a functional effect of pharmacological Cdk5 inhibition in the brain, we tested mouse performance in two behavioral paradigms previously shown to be altered in Cdk5 knockout mice: the open-field maze and the tail suspension test ([Plattner et al., 2015]). The open-field maze was used to measure locomotion and anxiety-like behavior ([Cacace et al., 2011]; [Seibenhener and Wooten, 2015]). Mice were injected with either vehicle or 50 mg/kg of 25–106 and allowed to freely explore an open-field maze for 1 h with locomotor activity being tracked (Figure 7).

CDK5/p25, sequence (Q00535 whole entry, species assumed): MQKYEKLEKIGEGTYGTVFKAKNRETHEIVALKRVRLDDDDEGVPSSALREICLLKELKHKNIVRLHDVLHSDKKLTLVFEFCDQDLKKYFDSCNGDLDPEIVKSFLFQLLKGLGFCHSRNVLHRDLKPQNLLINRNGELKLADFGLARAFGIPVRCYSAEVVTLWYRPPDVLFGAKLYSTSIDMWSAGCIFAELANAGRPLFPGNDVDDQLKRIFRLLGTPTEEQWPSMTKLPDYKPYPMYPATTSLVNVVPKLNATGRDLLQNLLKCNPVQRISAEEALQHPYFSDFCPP
CDK5/p25, sequence (Q15078 99-307 partner limits assumed, species assumed): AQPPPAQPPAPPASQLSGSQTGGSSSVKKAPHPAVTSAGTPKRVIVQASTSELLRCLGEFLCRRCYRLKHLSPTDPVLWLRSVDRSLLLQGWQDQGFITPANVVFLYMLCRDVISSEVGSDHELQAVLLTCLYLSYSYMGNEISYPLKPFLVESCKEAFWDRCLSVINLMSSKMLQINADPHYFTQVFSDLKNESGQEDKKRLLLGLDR

## COc1cc(CC(=O)Nc2cc(C3CCC3)[nH]n2)cc(OC)c1OC [25–106, N-(5-cyclobutyl-1H-pyrazol-3-yl)-2-(3,4,5-trimethoxyphenyl)acetamide]
CDK5/p25; 30 min, ATP 30 μM, read-out: IC50 CDK5/P35
  IC50: 178 nM
CDK5/p25; 30 min, ATP 30 μM, read-out: Ki CDK5/P35
  Ki: 107 nM
CDK5/p25; in vitro kinase assay
  selectivity for Cdk5 than Cdk9: greater than 30 fold
Cdk9/CyclinT1; read-out: IC50 CDK9/Cyclin T1
  IC50: 5710 nM
Cdk9/CyclinT1; read-out: Ki CDK9/Cyclin T1
  Ki: 3430 nM
Cdk2/CyclinE; 30 min, ATP 30 μM, read-out: IC50 CDK2/Cyclin E
  IC50: 149 nM
Cdk2/CyclinE; 30 min, ATP 30 μM, read-out: Ki CDK2/Cyclin E
  Ki: 89 nM
Cdk2/CyclinE; in vitro kinase assay
  selectivity for Cdk2 than Cdk9: greater than 30 fold
C57BL/6 mice [1]
  latency to immobility vs. vehicle: increased latency
  total immobility time vs. vehicle: reduction in total immobility time
Cdk5
  IC50: 500 to 1000 nM
C57BL/6 mice [2]; 1 h after injection, 1 h test
  duration of time spent in the open portion of the maze vs. vehicle: longer duration of time
  entries into the open portion of the maze vs. vehicle: increased number of entries
C57BL/6 mice [2]; open-field testing
  hopping bouts vs. vehicle: increased hopping bouts
  rearing behaviors vs. vehicle: increased rearing behaviors
  time sniffing vs. vehicle: increased time sniffing
